The text below walks through data of BindingDB's records for doi:10.1021/jm400930e (Ocean University of China, 2013).

Usually EC50 stands for the concentration giving half of the maximal effect.

A short description of the series: Modulation of p-gp (unknown origin) transfected in human MDA435/LCC6MDR cells assessed as reversal of paclitaxel resistance.

Consider `COc1ccc(C2=C(c3ccc(OC)c(OC)c3)C(=O)N(CC(=O)c3ccc(OCc4ccccc4)c(OC)c3)C2=O)cc1OC`, for which the 50% effective concentration (EC50) was 94 nM.
For the compound `COc1ccc(C2=C(c3cc(OC)c(OC)c(OC)c3)C(=O)N(CC(=O)c3ccc(OCc4ccccc4)c(OC)c3)C2=O)cc1OC`, the EC50 was 110 nM.
